Earlier results as cited in patent US10898503B2, “Cleavable drug conjugates, compositions thereof and methods of use” (priority 2013, dated 2021).
Read-outs that look alike come from different tables or passages of the source.

Columns and labels:
[1] = patients
[2] = in vivo

Compound | chance of developing cardiomyopathy ([1]; cumulative dose of 300 mg/m^2) | chance of developing cardiomyopathy ([1]; cumulative dose of 400 mg/m^2) | chance of developing cardiomyopathy ([1]; cumulative dose of 450 mg/m^2) [%] | chance of developing cardiomyopathy ([1]; cumulative dose of 500 mg/m^2) | half-life [2]
COc1cccc2c1C(=O)c1c(O)c3c(c(O)c1C2=O)C[C@@](O)(C(=O)CO)C[C@@H]3O[C@H]1C[C@H](N)[C@H](O)[C@H](C)O1 [Doxorubicin] | 1-2% | 3-5% | 5 to 8 | 6-20% | 
enfuvirtide |  |  |  |  | four
